Laboratory results taken from PMC11242993, “Evaluation of the Therapeutic Potential of Sulfonyl Urea Derivatives as Soluble Epoxide Hydrolase (sEH) Inhibitors” (Molecules, 2024).
Entries after “also recorded” stand apart in the source; their conditions may differ.

What was measured:
[1] = Plasma protein binding (equilibrium dialysis), human; assay type: in vitro ADME; details: for fraction unbound at 5 h, 1 μM: plasma (non-diluted), pH 7.4, read-out: Plasma Protein Binding Human % of Bound Comp
Description: (§1) The assay was performed in a multiple-use 96-well dialysis unit (HTD96b dialyzer). Each individual well unit consisted of 2 chambers separated by a vertically aligned dialysis membrane of predetermined pore size (MWCO 12–14 kDa). An amount of 120 μL of non-diluted plasma spiked with the compound (1 μM, final DMSO concentration 1%) was added to one chamber, and the same volume of PBS buffer with pH 7.4 was added to the other chamber. The HTD96b dialyzer was covered with adhesive sealing film and incubated at 37 °C and shaken at 100 rpm for 5 h. For sample preparation, an aliquot of the content of each chamber was mixed with the same volume of the blank opposite matrix. To define the non-specific loss of the compound during this assay, a standard solution was created by mixing an aliquot of spiked plasma with a blank buffer without dialysis. Two aliquots of the standard solution were incubated at 37 °C and shaken at 100 rpm for 5 h (recovery samples). The other two aliquots were immediately diluted with acetonitrile and stored at 4 °C until LC–MS/MS analysis (stability samples). All samples were diluted 5-fold with 100% methanol with subsequent plasma protein sedimentation by centrifuging at 6000 rpm for 5 min. Supernatants were analyzed using the HPLC system coupled with a tandem mass spectrometer.

[2] = Plasma protein binding (equilibrium dialysis), mouse; assay type: in vitro ADME; details: for fraction unbound at 5 h, 1 μM: plasma (non-diluted), pH 7.4, read-out: Plasma Protein Binding Mouse % of Bound Comp (converted)
Description: as §1

human recombinant sEH = biological target: T1, human recombinant sEH (Homo sapiens, UniProt P34913); assay: Fluorescence-based sEH activity assay (PHOME substrate), human enzyme; assay type: biochemical; details: for IC50: dose-dependent assay, read-out: Human sEH Inhibition IC50
T1 construct: purchased Cayman Chemical 10011671
T1 sequence (P34913 1-555): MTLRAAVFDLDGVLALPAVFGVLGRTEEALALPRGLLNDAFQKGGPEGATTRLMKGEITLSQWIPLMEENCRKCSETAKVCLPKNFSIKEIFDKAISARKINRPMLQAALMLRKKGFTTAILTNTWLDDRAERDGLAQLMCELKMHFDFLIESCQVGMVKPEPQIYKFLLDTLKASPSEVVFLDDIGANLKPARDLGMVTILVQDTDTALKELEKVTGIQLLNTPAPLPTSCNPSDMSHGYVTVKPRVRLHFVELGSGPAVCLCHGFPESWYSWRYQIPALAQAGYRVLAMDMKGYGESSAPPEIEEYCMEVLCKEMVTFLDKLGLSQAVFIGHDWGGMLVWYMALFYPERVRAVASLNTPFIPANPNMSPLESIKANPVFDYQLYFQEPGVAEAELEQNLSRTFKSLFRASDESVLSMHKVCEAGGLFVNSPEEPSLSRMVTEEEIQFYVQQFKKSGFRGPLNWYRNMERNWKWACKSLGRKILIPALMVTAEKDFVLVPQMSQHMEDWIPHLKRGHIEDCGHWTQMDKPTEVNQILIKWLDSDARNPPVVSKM

mice = assay: LPS-induced acute lung injury (ALI) model; assay type: in vivo; details: 10 mg/kg i.p.
Description: LPS-induced acute lung injury induced by a single oropharyngeal instillation of lipopolysaccharide (LPS) (50 µg/mouse) in 16-week-old mice as described previously. Briefly, LPS (L4391, MilliporeSigma, Burlington, MA, USA) was dissolved in sterile saline and administered at 50 µg/mouse in 40 µL after anesthesia induced by ketamine/xylazine. The mice were studied 24 h after LPS or saline instillation.
BALF was collected from anesthetized mice by lavaging lungs two times with 0.8 mL Hanks’ balanced salt solution without calcium and magnesium (HBSS) (Sigma-Aldrich, St. Louis, MI, USA). Supernatants were collected as BALF for further analyses.
The number of cells in the BALF was estimated using an automated cell counter, the Countess II FL cell counter (Thermo Fisher Scientific Inc., Waltham, MA, USA).
Albumin levels were measured by the Mouse Albumin Elisa Assay kit (Cat # E99-134), which was obtained from Bethyl Laboratories. BALF samples from the LPS group were diluted at a 1:2000 ratio.
Total protein in BALF samples was measured using the Pierce BCA protein assay kit (Cat # 23225) as detailed in the product manual (Thermo Fisher Scientific).
The right middle lobe was immediately placed in an RNA later solution and stored at −80 °C until the RNA extraction procedure. RNA extraction was performed using RNeasy Mini Kits from Qiagen (Valencia, CA, USA). One microgram of total RNA was reverse transcribed to cDNA using an iScript cDNA synthesis kit (Bio-Rad, Hercules, CA, USA). Expression of the target genes was quantified using gene-specific primers and PowerSYBRGreen master mix (Thermo Fisher Scientific) in a QuantStudio 3 Real-Time PCR instrument (Thermo Fisher Scientific). Predesigned mouse IL-6 (QT00098875), TNF-α (QT00104006), IL-1β (QT01048355), CXCL1 (QT00115647), CCL2 (QT00167832), CXCL3 (QT00151599) and CXCL9 (QT00097062) primers were purchased from Qiagen (Valencia, CA, USA). Fold changes in gene expression relative to the housekeeping gene TATA-Box Binding Protein (Tbp, QT00198443) were determined. Gene expression values were calculated based on the […] method.

Compound | compound stability in plasma during dialysis [1] [%] | fraction unbound at 5 h, 1 μM [1] | compound recovery/stability in mouse plasma after 5 h incubation (%) [2] [%] | fraction unbound at 5 h, 1 μM [2] | Human sEH % Inhibition (human recombinant sEH) [%] | IC50 (human recombinant sEH) [nM] | effect on LPS-induced increase in total protein in BALF (mice) | number of cells in bronchoalveolar lavage (BAL) (mice) | LPS-induced lung gene expression of interleukin 1B (IL-1B) (mice; qPCR) | lung gene expression of CCL-2 (mice; qPCR) | lung gene expression of CXCL1 (mice; qPCR) | LPS-induced lung gene expression of interleukin 6 (IL-6) (mice; qPCR, 10 mg/kg) | LPS-induced lung gene expression of interleukin 6 (IL-6) (mice; qPCR)
O=C(NC12CC3CC(CC(C3)C1)C2)NS(=O)(=O)c1ccc(OC(F)(F)F)cc1 [Compound 4f] | 99 | < 0.001 | 106 | 0.02 | 96.05 | 1.69 | neither AUDA nor novel sEH inhibitors’ (4f and 4l) effect | similarly attenuated the number of cells in BAL | attenuated | more pronounced in reducing IL-6 and CCL-2 expressions | similarly attenuated | attenuated; also recorded: more pronounced in reducing IL-6 and CCL-2 expressions | 
O=C(NC12CC3CC(CC(C3)C1)C2)NS(=O)(=O)c1ccc2ccccc2c1 [Compound 4l] | 99 | < 0.001 | 88 | 0.02 | 96.79 | 1.21 | neither AUDA nor novel sEH inhibitors’ (4f and 4l) effect |  | had no effect on reducing these |  |  |  | had no effect on reducing these
